Assay results reported in article PMC3723878 (PLoS ONE, 2013).
Numbering of substitutions follows the chain as printed.

Key:
Assay in all cases: Saturation binding of ^125I-HEAT
[1] = target: T1, human α1A-AR F193A variant (Homo sapiens, UniProt P35348, F193A)
T1 construct: expressed in transfected cells; host or cells: COS-7, transient (calcium phosphate)
T1 sequence (P35348 1-466 F193A): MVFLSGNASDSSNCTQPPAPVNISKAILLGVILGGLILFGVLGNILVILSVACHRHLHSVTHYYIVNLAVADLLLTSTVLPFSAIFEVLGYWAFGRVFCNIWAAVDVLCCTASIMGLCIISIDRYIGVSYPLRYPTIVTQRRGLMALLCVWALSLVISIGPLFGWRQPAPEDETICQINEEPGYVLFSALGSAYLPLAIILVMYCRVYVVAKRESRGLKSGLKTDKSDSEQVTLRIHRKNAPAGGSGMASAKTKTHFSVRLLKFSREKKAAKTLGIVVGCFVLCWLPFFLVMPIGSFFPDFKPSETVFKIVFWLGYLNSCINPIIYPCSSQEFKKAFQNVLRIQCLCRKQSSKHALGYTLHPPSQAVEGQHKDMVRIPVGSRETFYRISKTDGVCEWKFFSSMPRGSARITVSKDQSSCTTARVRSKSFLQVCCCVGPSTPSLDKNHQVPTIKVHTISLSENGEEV
Source text: (§1) α1A-AR cDNA inserted in the prK5 vector was kindly provided by Michael Brownstein (Craig Venter Institute, Rockville, MD). Point mutations were introduced into the α1A-AR gene by sense and antisense primers (Sigma-Aldrich, St Quentin-Fallavier, France) containing the desired changes, using the QuikChange Site-Directed Mutagenesis kit. The incorporation of each mutation was verified by DNA sequencing.
(§2) CHO cells stably expressing α1-ARs were kindly provided by Dr. Hervé Paris (INSERM U858, Toulouse, France) and were grown in a 50∶50 Dulbecco's Modified Eagle's Medium (DMEM)/Ham's F12 medium supplemented with 10% (v/v) foetal bovine serum (FBS), glutamine (2 mM), penicillin (100 units/ml) and streptomycin (100 µg/ml) at 37°C with 5% CO2. COS-7 cells were grown at 37°C under 5% CO2 in Dulbecco's modified Eagle's medium containing 10% fetal calf serum, 1% penicillin and 1% glutamine (Sigma-Aldrich, St Quentin-Fallavier, France). At 80% confluence, the cells were transfected using a calcium phosphate precipitation method for transient expression of the genetic construct. After 48 h incubation at 37°C, cells were harvested and the membranes were prepared as follow. Cells were washed with ice-cold phosphate buffer and centrifuged at 1700 g for 10 min (4°C). The pellet was suspended in ice-cold buffer (1 mM EDTA, 25 mM sodium phosphate, and 5 mM MgCl2, pH 7.4) and homogenized using an Potter-Elvehjem homogenizer (Fisher Scientific Labosi, Elancourt, France). The homogenate was centrifuged at 1700 g for 15 min (4°C). The sediment was resuspended in buffer, homogenized, and centrifuged at 1700 g for 15 min (4°C). The combined supernatants were centrifuged at 35,000 g for 30 min (4°C), and the pellet was suspended in the same buffer (0.1 ml/dish). […] Cells were grown in a 50∶50 Dulbecco's Modified Eagle's Medium (DMEM)/Ham's F12 medium supplemented with 10% (v/v) foetal bovine serum (FBS), glutamine (2 mM), penicillin (100 units/ml) and streptomycin (100 µg/ml) at 37°C with 5% CO2. Media was changed every 2–3 days and cells were passaged when confluent with 0.05% trypsin and 0.02% EDTA.
(§3) Binding experiments were performed in a 100 µL reaction mix at room temperature in buffer composed of 50 mM Tris-HCl, pH 7.4, 10 mM MgCl2, 1 g/L BSA. Reactions were stopped by filtration through 96 GF/C filter plates pre-incubated with 0.5% polyethylenimine.
(§4) Binding data were analyzed by nonlinear regression using the KaleidaGraph 4.0 software (Synergy software, Reading, PA). pKD values and Bmax (number of binding sites) were determined by applying a nonlinear regression to data obtained with saturation binding assays. The nonlinear regression used was BS = (Bmax*A)/KD+A, where BS is the specific binding, Bmax the number of binding sites, A the concentration of radioligand, and KD the dissociation constant of the radioligand. Data resulting from competition binding assays were analyzed using the Hill equation for IC50 and curve slope estimations. […] The linear curves were analyzed with IC50 = Ki+(L/KD)*Ki. Dissociation kinetics were analyzed using a simple equation of exponential decay BS * exp (-Koff*t), where BS is the specific binding at time zero and Koff is the dissociation rate constant. Results are expressed as mean ± s.e. mean from n independent experiments. One-way Anova test was used to compare values. A p<0.05 was accepted for statistical significance.

[2] = target: T2, human α1A-AR F288A variant (Homo sapiens, UniProt P35348, F288A)
T2 construct: expressed in transfected cells; host or cells: COS-7 (transient, calcium phosphate), membranes
T2 sequence (P35348 1-466 F288A): T1 sequence (P35348 1-466 F193A) with A193F, F288A
Source text: as §1, §2, §3, §4

[3] = target: T3, human α1A-AR F308A variant (Homo sapiens, UniProt P35348, F308A)
T3 construct: expressed in transfected cells; host or cells: COS-7 (transient, calcium phosphate), membranes
T3 sequence (P35348 1-466 F308A): T1 sequence (P35348 1-466 F193A) with A193F, F308A
Source text: as §1, §2, §3, §4

SMILES: O=C1c2ccccc2CCC1CNCCc1ccc(O)c([125I])c1 (centres unmarked) [125I-HEAT]
- ^125I-HEAT Ratio (loss of affinity relative to WT) [1]: 2.8
- ^125I-HEAT Ratio (loss of affinity relative to WT) ([2]; F288A): 1.3
- ^125I-HEAT pKd ([2]; F288A (6.51), saturation binding, n = 3–6): 9.92±0.12
- ^125I-HEAT Ratio (loss of affinity relative to WT) ([3]; F308A): 2.4
- ^125I-HEAT pKd ([3]; F308A (7.35), saturation binding, n = 3–6): 9.66±0.11
